Source: patent publication US10676485B2, “Macrocyclic MCL-1 inhibitors and methods of use” (AbbVie Inc., priority 2017, dated 2020)
Where two headings read alike, the source gives them in different places.

Experiments:
[1] = system: NCI-H929 human multiple myeloma tumor cell line; assay: NCI-H929 cell viability assay (CellTiter-Glo); type: cell-based; settings: NCI-H929, read-out: H929 Viability IC50 (μM), 10% FBS, 24 hours of compound treatment
GST-MCL-1 = GST-MCL-1 (Homo sapiens (Human), UniProt Q07820); assay: TR-FRET MCL-1 binding assay (competition with probe F-Bak)
How it was run: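 Compounds as 11 three-fold dilutions from 25 μM with GST-MCL-1, F-Bak probe and Tb-anti-His antibody, 2 h at room temperature. TR-FRET at 340 nm excitation, 520/525 nm (F-Bak) and 495/510 nm (Tb) emission. Run without human serum and with 10% HS.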

[2] = system: AMO-1 human multiple myeloma tumor cell line; assay: AMO-1 cell viability assay (CellTiter-Glo); type: cell-based; settings: AMO1, read-out: AMO-1 Viability IC50 (μM), 10% FBS, 24 hours of compound treatment
Experimental: In one exemplary set of conditions, NCI-H929 or AMO-1 (ATCC. Manassas, Va.) were plated 4.000 cells per well in 384-well tissue culture plates (Corning. Corning, N.Y.) in a total volume of 25 μL RPMI tissue culture medium supplemented with 10% fetal bovine serum (Sigma-Aldrich, St. Louis, Mo.) and treated with a 3-fold serial dilution of the compounds of interest with a Labcyte Echo from a final concentration of 10 μM to 0.0005 μM. Each concentration was tested in duplicate at least 3 independent times. A luminescent signal proportional to the number of viable cells following 24 hours of compound treatment was determined using the CellTiter-Glo® Luminescent Cell Viability Assay according to the manufacturer's recommendations (Promega Corp., Madison, Wis.). The plates were read in a Perkin Elmer Envision using a Luminescence protocol. To generate dose response curves the data is normalized to percent viability by setting the averages of the staurosporine (10 uM) and DMSO only control wells to 0% and (00)% viability respectively. The IC50 values for the compounds are generated by fitting the normalized data with Accelrys Assay Explorer 3.3 to a sigmoidal curve model using linear regression.

[3] = read-out: MCL-1 Binding Ki (nM, 10% HS), in the presence of 10% HS
[4] = without HS, read-out: MCL-1 Binding Ki

GST-MCL-1, sequence (Q07820 whole entry): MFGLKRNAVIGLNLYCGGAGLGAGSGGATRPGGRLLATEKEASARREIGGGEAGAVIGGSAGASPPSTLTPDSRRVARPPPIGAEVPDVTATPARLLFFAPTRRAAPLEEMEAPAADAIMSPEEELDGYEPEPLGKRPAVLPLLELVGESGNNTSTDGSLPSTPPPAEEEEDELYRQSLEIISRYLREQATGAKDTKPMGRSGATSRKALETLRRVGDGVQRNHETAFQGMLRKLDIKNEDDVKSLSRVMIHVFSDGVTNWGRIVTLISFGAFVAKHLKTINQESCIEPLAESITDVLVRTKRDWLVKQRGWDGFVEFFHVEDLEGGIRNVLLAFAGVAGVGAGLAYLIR

| SMILES | IC50 [1] [µM] | Ki (GST-MCL-1; [3]) [nM] | Ki (GST-MCL-1; [4]) [nM] | IC50 [2] [µM] |
| --- | --- | --- | --- | --- |
| Cc1c(Cl)c2c(Cl)c(C)c1-c1c(C3=CCCC3)sc3ncnc(c13)O[C@@H](C(=O)O)Cc1cc(ccc1OCc1ccnc([C@H]3CC[C@@](F)(COC[C@@H]4COCCO4)CC3)n1)OC[C@@H](CN1CCN(C)CC1)O2 [Example 37, (7R,16R)-19,23-dichloro-1-(cyclopent-1-en-1-yl)-10-({2-[(1S,4r)-4-({[(2S)-1,4-dioxan-2-yl]methoxy}methyl)-4-fluorocyclohexyl]pyrimidin-4-yl}methoxy)-20,22-dimethyl-16-[(4-methylpiperazin-1-yl)methyl]-7,8,15,16-tetrahydro-18,21-etheno-13,9-(metheno)-6,14,17-trioxa-2-thia-3,5-diazacyclononadeca[1,2,3-cd]indene-7-carboxylic acid] | 0.00053 | 0.63 | 0.051 | 0.000187 |
| Cc1c(Cl)c2c(Cl)c(C)c1-c1c(C3=CCCC3)sc3ncnc(c13)O[C@@H](C(=O)O)Cc1cc(ccc1OCc1ccnc(C3=CC[C@@](F)(COC[C@@H]4COCCO4)CC3)n1)OC[C@@H](CN1CCN(C)CC1)O2 [Example 38, (7R,16R)-19,23-dichloro-1-(cyclopent-1-en-1-yl)-10-({2-[(4R)-4-({[(2S)-1,4-dioxan-2-yl]methoxy}methyl)-4-fluorocyclohex-1-en-1-yl]pyrimidin-4-yl}methoxy)-20,22-dimethyl-16-[(4-methylpiperazin-1-yl)methyl]-7,8,15,16-tetrahydro-18,21-etheno-13,9-(metheno)-6,14,17-trioxa-2-thia-3,5-diazacyclononadeca[1,2,3-cd]indene-7-carboxylic acid] | 0.000748 | 0.63 | 0.036 | 0.000267 |
| Cc1c(Cl)c2c(Cl)c(C)c1-c1c(-c3ccc(F)cc3)sc3ncnc(c13)O[C@@H](C(=O)O)Cc1cc(ccc1OCc1ccnc([C@H]3CC[C@](F)(COC[C@H]4COCCO4)CC3)n1)OC[C@@H](CN1CCN(C)CC1)O2 [Example 39, (7R,16R)-19,23-dichloro-10-({2-[(1S,4s)-4-({[(2R)-1,4-dioxan-2-yl]methoxy}methyl)-4-fluorocyclohexyl]pyrimidin-4-yl}methoxy)-1-(4-fluorophenyl)-20,22-dimethyl-16-[(4-methylpiperazin-1-yl)methyl]-7,8,15,16-tetrahydro-18,21-etheno-13,9-(metheno)-6,14,17-trioxa-2-thia-3,5-diazacyclononadeca[1,2,3-cd]indene-7-carboxylic acid] | 0.000239 | 0.06 | 0.004 | 0.000235 |
| Cc1c(Cl)c2c(Cl)c(C)c1-c1c(-c3ccc(F)cc3)sc3ncnc(c13)O[C@@H](C(=O)O)Cc1cc(ccc1OCc1ccnc(C3=CC[C@](F)(COC[C@H]4COCCO4)CC3)n1)OC[C@@H](CN1CCN(C)CC1)O2 [Example 40, (7R,16R)-19,23-dichloro-10-({2-[(4S)-4-({[(2R)-1,4-dioxan-2-yl]methoxy}methyl)-4-fluorocyclohex-1-en-1-yl]pyrimidin-4-yl}methoxy)-1-(4-fluorophenyl)-20,22-dimethyl-16-[(4-methylpiperazin-1-yl)methyl]-7,8,15,16-tetrahydro-18,21-etheno-13,9-(metheno)-6,14,17-trioxa-2-thia-3,5-diazacyclononadeca[1,2,3-cd]indene-7-carboxylic acid] | 0.000271 | 0.63 | 0.014 | 0.000352 |
| Cc1c(Cl)c2c(Cl)c(C)c1-c1c(-c3ccc(F)cc3)sc3ncnc(c13)O[C@@H](C(=O)O)Cc1cc(ccc1OCc1ccnc(-c3ccc(NC[C@@H]4COCCO4)nc3)n1)OC[C@@H](CN1CCN(C)CC1)O2 [Example 41, (7R,16R)-19,23-dichloro-10-({2-[6-({[(2R)-1,4-dioxan-2-yl]methyl}amino)pyridin-3-yl]pyrimidin-4-yl}methoxy)-1-(4-fluorophenyl)-20,22-dimethyl-16-[(4-methylpiperazin-1-yl)methyl]-7,8,15,16-tetrahydro-18,21-etheno-13,9-(metheno)-6,14,17-trioxa-2-thia-3,5-diazacyclononadeca[1,2,3-cd]indene-7-carboxylic acid] | 0.000595 | 0.14 | 0.009 | 0.000589 |
| Cc1c(Cl)c2c(Cl)c(C)c1-c1c(-c3ccc(F)cc3)sc3ncnc(c13)O[C@@H](C(=O)O)Cc1cc(ccc1OCc1ccnc(C3=CC[C@@](F)(COC[C@@H]4COCCO4)CC3)n1)OC[C@@H](CN1CCN(C)CC1)O2 [Example 42, (7R,16R)-19,23-dichloro-10-({2-[(4R)-4-({[(2S)-1,4-dioxan-2-yl]methoxy}methyl)-4-fluorocyclohex-1-en-1-yl]pyrimidin-4-yl}methoxy)-1-(4-fluorophenyl)-20,22-dimethyl-16-[(4-methylpiperazin-1-yl)methyl]-7,8,15,16-tetrahydro-18,21-etheno-13,9-(metheno)-6,14,17-trioxa-2-thia-3,5-diazacyclononadeca[1,2,3-cd]indene-7-carboxylic acid] | 0.000356 | 0.24 | 0.018 | 0.000404 |
| Cc1c(Cl)c2c(Cl)c(C)c1-c1c(-c3ccc(F)cc3)sc3ncnc(c13)O[C@@H](C(=O)O)Cc1cc(ccc1OCc1ccnc(C3=CC[C@@](F)(COC[C@H]4COCCO4)CC3)n1)OC[C@@H](CN1CCN(C)CC1)O2 [Example 43, (7R,16R)-19,23-dichloro-10-({2-[(4R)-4-({[(2R)-1,4-dioxan-2-yl]methoxy}methyl)-4-fluorocyclohex-1-en-1-yl]pyrimidin-4-yl}methoxy)-1-(4-fluorophenyl)-20,22-dimethyl-16-[(4-methylpiperazin-1-yl)methyl]-7,8,15,16-tetrahydro-18,21-etheno-13,9-(metheno)-6,14,17-trioxa-2-thia-3,5-diazacyclononadeca[1,2,3-cd]indene-7-carboxylic acid] | 0.000365 | 0.18 | 0.02 | 0.000346 |
| Cc1c(Cl)c2c(Cl)c(C)c1-c1c(-c3ccc(F)cc3)sc3ncnc(c13)O[C@@H](C(=O)O)Cc1cc(ccc1OCc1ccnc([C@H]3CC[C@H](OC[C@@H]4COCCO4)CC3)n1)OC[C@@H](CN1CCN(C)CC1)O2 [Example 44, (7R,16R)-19,23-dichloro-10-({2-[(1S,4r)-4-{[(2S)-1,4-dioxan-2-yl]methoxy}cyclohexyl]pyrimidin-4-yl}methoxy)-1-(4-fluorophenyl)-20,22-dimethyl-16-[(4-methylpiperazin-1-yl)methyl]-7,8,15,16-tetrahydro-18,21-etheno-13,9-(metheno)-6,14,17-trioxa-2-thia-3,5-diazacyclononadeca[1,2,3-cd]indene-7-carboxylic acid] | 0.000286 | 0.16 | 0.02 | 0.000268 |
| Cc1c(Cl)c2c(Cl)c(C)c1-c1c(-c3ccc(F)cc3)sc3ncnc(c13)O[C@@H](C(=O)O)Cc1cc(ccc1OCc1ccnc(C3=CC[C@](F)(COC[C@@H]4COCCO4)CC3)n1)OC[C@@H](CN1CCN(C)CC1)O2 [Example 45, (7R,16R)-19,23-dichloro-10-({2-[(4S)-4-({[(2S)-1,4-dioxan-2-yl]methoxy}methyl)-4-fluorocyclohex-1-en-1-yl]pyrimidin-4-yl}methoxy)-1-(4-fluorophenyl)-20,22-dimethyl-16-[(4-methylpiperazin-1-yl)methyl]-7,8,15,16-tetrahydro-18,21-etheno-13,9-(metheno)-6,14,17-trioxa-2-thia-3,5-diazacyclononadeca[1,2,3-cd]indene-7-carboxylic acid] | 0.000258 | 0.16 | 0.012 | 0.000249 |
| Cc1c(Cl)c2c(Cl)c(C)c1-c1c(-c3ccc(F)cc3)sc3ncnc(c13)O[C@@H](C(=O)O)Cc1cc(ccc1OCc1ccnc([C@H]3CC[C@@](F)(COC[C@@H]4COCCO4)CC3)n1)OC[C@@H](CN1CCN(C)CC1)O2 [Example 46, (7R,16R)-19,23-dichloro-10-({2-[(1S,4r)-4-({[(2S)-1,4-dioxan-2-yl]methoxy}methyl)-4-fluorocyclohexyl]pyrimidin-4-yl}methoxy)-1-(4-fluorophenyl)-20,22-dimethyl-16-[(4-methylpiperazin-1-yl)methyl]-7,8,15,16-tetrahydro-18,21-etheno-13,9-(metheno)-6,14,17-trioxa-2-thia-3,5-diazacyclononadeca[1,2,3-cd]indene-7-carboxylic acid] | 0.000418 | 0.24 | 0.022 | 0.000579 |
| Cc1c(Cl)c2c(Cl)c(C)c1-c1c(-c3ccc(F)cc3)sc3ncnc(c13)O[C@@H](C(=O)O)Cc1cc(ccc1OCc1ccnc([C@H]3CC[C@@](F)(COC[C@H]4COCCO4)CC3)n1)OC[C@@H](CN1CCN(C)CC1)O2 [Example 47, (7R,16R)-19,23-dichloro-10-({2-[(1R,4r)-4-({[(2R)-1,4-dioxan-2-yl]methoxy}methyl)-4-fluorocyclohexyl]pyrimidin-4-yl}methoxy)-1-(4-fluorophenyl)-20,22-dimethyl-16-[(4-methylpiperazin-1-yl)methyl]-7,8,15,16-tetrahydro-18,21-etheno-13,9-(metheno)-6,14,17-trioxa-2-thia-3,5-diazacyclononadeca[1,2,3-cd]indene-7-carboxylic acid] | 0.000344 | 0.521 | 0.0133 | 0.000463 |
